{"source": "paper PMC9911596", "about": "(Nature Communications, 2023)", "biological_target": "T1, Vtc1/Vtc3/Vtc4 complex (VTC complex) (Saccharomyces cerevisiae, UniProt P47075+Q02725, Q02725:K126A/Q02725:K129A/Q02725:K133A)", "T1 construct": "full-length subunits co-expressed in Expi293F; Vtc1 C-terminal HA, Vtc3 N-terminal 3xFlag, Vtc4 C-terminal 2xStrep; detergent-purified; 3:1:1 pentamer; with Vacuolar transporter chaperone complex subunit 1", "T1 sequence (P47075 1-721)": "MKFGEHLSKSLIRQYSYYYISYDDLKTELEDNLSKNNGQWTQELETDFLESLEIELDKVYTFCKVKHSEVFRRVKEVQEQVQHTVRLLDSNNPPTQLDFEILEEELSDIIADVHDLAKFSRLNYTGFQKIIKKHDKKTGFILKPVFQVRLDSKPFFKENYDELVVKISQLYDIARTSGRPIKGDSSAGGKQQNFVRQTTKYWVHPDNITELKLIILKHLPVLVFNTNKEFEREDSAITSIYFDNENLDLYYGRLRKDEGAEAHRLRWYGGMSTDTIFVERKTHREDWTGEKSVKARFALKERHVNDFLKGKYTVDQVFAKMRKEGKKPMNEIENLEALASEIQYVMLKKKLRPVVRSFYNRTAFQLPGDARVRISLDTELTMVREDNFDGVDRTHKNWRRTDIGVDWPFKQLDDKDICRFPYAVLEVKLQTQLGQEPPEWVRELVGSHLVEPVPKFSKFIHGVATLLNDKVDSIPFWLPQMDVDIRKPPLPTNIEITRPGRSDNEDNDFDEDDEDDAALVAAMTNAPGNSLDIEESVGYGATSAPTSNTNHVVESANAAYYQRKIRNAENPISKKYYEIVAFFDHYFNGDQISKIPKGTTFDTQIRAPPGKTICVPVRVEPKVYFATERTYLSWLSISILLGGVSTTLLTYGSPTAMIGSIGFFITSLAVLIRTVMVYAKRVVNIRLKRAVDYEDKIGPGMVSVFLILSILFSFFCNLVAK", "T1 sequence (Q02725 1-835 K126A/K129A/K133A)": "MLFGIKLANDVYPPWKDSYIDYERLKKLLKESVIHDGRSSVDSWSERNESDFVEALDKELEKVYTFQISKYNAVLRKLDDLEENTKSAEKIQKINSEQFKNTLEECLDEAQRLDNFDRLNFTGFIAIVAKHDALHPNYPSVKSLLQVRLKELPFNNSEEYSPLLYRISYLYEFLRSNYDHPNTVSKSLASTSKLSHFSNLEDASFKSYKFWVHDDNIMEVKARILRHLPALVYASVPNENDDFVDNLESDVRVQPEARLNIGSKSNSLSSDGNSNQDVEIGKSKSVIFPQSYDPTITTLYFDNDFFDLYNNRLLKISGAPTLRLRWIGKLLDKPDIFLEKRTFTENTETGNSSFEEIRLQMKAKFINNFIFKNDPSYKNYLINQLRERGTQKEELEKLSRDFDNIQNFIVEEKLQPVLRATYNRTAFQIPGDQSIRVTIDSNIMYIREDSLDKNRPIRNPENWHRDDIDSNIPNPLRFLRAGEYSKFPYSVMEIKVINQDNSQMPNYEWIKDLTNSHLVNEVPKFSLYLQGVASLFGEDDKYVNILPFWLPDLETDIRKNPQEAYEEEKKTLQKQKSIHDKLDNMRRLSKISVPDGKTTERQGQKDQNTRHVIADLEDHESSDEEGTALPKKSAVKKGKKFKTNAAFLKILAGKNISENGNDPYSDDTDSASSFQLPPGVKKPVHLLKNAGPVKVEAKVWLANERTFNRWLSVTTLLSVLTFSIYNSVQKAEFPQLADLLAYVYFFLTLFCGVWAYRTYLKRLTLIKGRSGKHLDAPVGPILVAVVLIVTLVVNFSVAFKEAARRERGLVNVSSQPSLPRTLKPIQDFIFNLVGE", "T1 sequence (P40046 2-129 partner)": "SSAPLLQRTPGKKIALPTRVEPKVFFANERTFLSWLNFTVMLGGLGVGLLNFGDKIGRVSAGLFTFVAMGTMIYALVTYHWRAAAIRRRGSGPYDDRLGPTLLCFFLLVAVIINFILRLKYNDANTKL", "assay": "polyP synthesis, TBE-PAGE", "assay_type": "biochemical", "details": "activator; 15 mM ATP, 10 mM MgCl2, 1 mM MnCl2, 0.5 mM pyrophosphate, 27 °C, 4 h; SPX KSC mutant"}
{"smiles": "O=P(O)(O)O[C@H]1[C@H](OP(=O)(O)O)[C@@H](OP(=O)(O)O)[C@H](OP(=O)(O)O)[C@@H](OP(=O)(O)O)[C@H]1OP(=O)(O)O", "note": "[InsP6]", "values": [{"measurement": "polyP synthesis, TBE-PAGE", "value": "residues had little effect on polyP synthesis"}]}
